Earlier results as cited in US7935348B2, “Combination therapy for the treatment of Alzheimer's disease” (Affiris Forschungs-und Entwicklungs GmbH, priority 2004, dated 2011).
Entries after “also recorded” stand apart in the source; their conditions may differ.

What was measured:
Aβ = details: for Aβ amount in the brain: peripheral treatment
Sequence of Aβ (P05067 672-711 limits assumed): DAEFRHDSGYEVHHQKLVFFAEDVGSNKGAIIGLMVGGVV

Substance	Aβ amount in the brain (Aβ)	AD-type neuropathologies (PDAPP transgenic mouse; immunization of young animals, before onset (6 weeks))	AD-like neuropathologies (PDAPP transgenic mouse; treatment of older animals (11 months))	Aβ content in the plasma (Aβ; peripheral administration)
GM1	reduction of the Aβ amount in the brain			
aggregated Aβ42: aggregated 42-amino acid form of amyloid-β peptide used as a "normal", not mimotope-based vaccine		prevented the development of plaque formation, neuritic dystrophy and astrogliosis	markedly reduced AD-like neuropathologies	
gelsolin	reduction of the Aβ amount in the brain			not reduced; also recorded: increased Aβ content in the plasma
